# Several values for one entry are separate records, joined by “and”; a condition that tells them apart may be missing. Equal entries are not always repeated. Where two headings read alike, the source gives them in different places.
# How the values were obtained:
# [1] = test system: H446 (small cell lung cancer) cells; test: CellTiter-Glo cell viability assay, H446 cells; type: cell-based, human; details: for viability at 0.1 µM / viability at 1 µM / viability at 10 µM: Homo sapiens, NCI-H446
# Description: (§1) Using the CellTiter-Glo kit provided by Promega Corporation, cell viability assay was performed on cancer cell lines to evaluate the ability of a compound to kill cancer cells in the in-vitro experiments. The kit measures the ATP levels by an enzymatic Luciferase assay. Normal viable cells will produce a certain level of ATP in metabolism. The enzymic reaction between the ATP product and the luciferase will emit a certain level of luminescent signal, which is captured by a luminometer and recorded as a certain luminescent read. […] When using this method to evaluate the anti-cancer activity of a compound, a certain concentration of an anti-cancer drug is added to the same amount of viable cancer cells, and the luminescent signal reading is acquired at a certain time point via CellTiter-Glo kits. […] Detailed procedure is as follows: a certain amount of small cell lung cancer cells (ATCC catalog No. H446), breast cancer cells (ATCC catalog No. MDAMB231) or colon cancer cells (ATCC catalog No. HCT116) are seeded in 96 wells with the same cell-culture medium, then respectively treated with WQ1001 and other anti-cancer drugs for a time course of 24, 48, and 72 hours. At the respective time points, the cancer cells are mixed with CellTiter-Glo reagents for 1 hour and the corresponding luminescent signals are recorded. Since the luminescent signal reading is proportional to the amount of viable cancer cells, the luminescent signal reading can be translated into the amount of viable cancer cells correspondingly. The cell livability rate is obtained by dividing the amount of viable cancer cells after treated with a certain concentration of anti-cancer drug by the amount of viable cancer cells of the Control Group which are not treated with the drug.
# [2] = test system: MDAMB231 (breast cancer) cells; test: CellTiter-Glo cell viability assay, MDAMB231 cells; type: cell-based; details: 48 hours; for viability at 0.1 µM / viability at 1 µM / viability at 10 µM: Homo sapiens, read-out: MDAMB231 cell viability after drug treatment; for viability at 0.1 µM: MDA-MB-231, 0.1 μM; for viability at 1 µM: MDA-MB-231, 1.0 μM; for viability at 10 µM: MDA-MB-231, 10 μM
# Description: as §1
# [3] = test system: HCT116 (colon cancer) cells; test: CellTiter-Glo cell viability assay, HCT116 cells; type: cell-based; details: for viability at 0.1 µM / viability at 1 µM / viability at 10 µM: Homo sapiens, read-out: HCT116 cell viability after drug treatment for 48 hours
# Description: as §1
# Water-solubility = type: physicochemical; details: for solubility: water
# Description: (§2) Table 15 lists comparison of properties between the representative compounds of the present invention and several existing CPT derivatives. In the test, the lactone ring stability was characterized by lactone ring conservation rate measured by HPLC (liquid chromatogram) after placing the test compounds in buffer solution of pH 7.4. The anticancer activity was characterized by viability of H446 cancer cells at 10 μM drug concentration. From the Table, one can learn the differences in water-solubility, lactone ring stability and toxicology of the compounds of the present invention.
# [4] = Lactone ring stability (lactone ring conservation rate by HPLC in pH 7.4 buffer); type: physicochemical; details: lactone ring conservation rate by HPLC after placing in buffer solution of pH 7.4
# Description: as §2
# human serum album = human serum album (Homo sapiens, UniProt P02768); details: physiological condition; cited from earlier work
# [5] = test system: human colon cancer HT-29 nude mouse xenograft; test: In vivo antitumor efficacy, HT-29 nude mouse xenograft model; details: 35 mg/kg
# [6] = test system: human breast cancer MCF-7 nude mouse xenograft; test: In vivo antitumor efficacy, MCF-7 nude mouse xenograft model; details: 35 mg/kg
# [7] = test system: human small cell lung cancer NCI-H446 nude mouse xenograft; test: In vivo antitumor efficacy, NCI-H446 nude mouse xenograft model
# Description: The drugs were administered by intravenous injection.
# WQ1001 was administered by I.V. injection once every other day for 3 consecutive times, followed by 7 days' rest without drug administration, then one more circle was performed, for a total of 6 times of administration.
# [8] = test system: human multiple myeloma NCI-H929 nude mouse xenograft; test: In vivo antitumor efficacy, NCI-H929 nude mouse xenograft model; details: 10 mg/kg (Table 23), intraperitoneal
# Description: The human multiple myeloma NCI-H929 cells were grafted to nude mice. […] Two days after tumor cell implantation, the drugs were administered by intraperitoneal injection once every 4 days for a total of 3 injections (on Day 2, 6, 10 after cancer cell implantation). The body weight was measured every 2 days.
# [9] = H446 cells, 0.1 μM, 48 hours, read-out: H446 cell viability after drug treatment for 48 hours
# [10] = H446 cells, 1.0 μM, 48 hours, read-out: H446 cell viability after drug treatment for 48 hours
# [11] = H446 cells, 10 μM, 48 hours, read-out: H446 cell viability after drug treatment for 48 hours
# [12] = viability of H446 cancer cells at 10 μM drug concentration (Table 15), read-out: Cancer cell viability
# [13] = viability of H446 cancer cells at 10 μM drug concentration (Table 15)
# [14] = topotecan 10 mg/kg i.v., D0, 4, 7, 11, 14, 17, D22
# human serum album, sequence (P02768 25-609): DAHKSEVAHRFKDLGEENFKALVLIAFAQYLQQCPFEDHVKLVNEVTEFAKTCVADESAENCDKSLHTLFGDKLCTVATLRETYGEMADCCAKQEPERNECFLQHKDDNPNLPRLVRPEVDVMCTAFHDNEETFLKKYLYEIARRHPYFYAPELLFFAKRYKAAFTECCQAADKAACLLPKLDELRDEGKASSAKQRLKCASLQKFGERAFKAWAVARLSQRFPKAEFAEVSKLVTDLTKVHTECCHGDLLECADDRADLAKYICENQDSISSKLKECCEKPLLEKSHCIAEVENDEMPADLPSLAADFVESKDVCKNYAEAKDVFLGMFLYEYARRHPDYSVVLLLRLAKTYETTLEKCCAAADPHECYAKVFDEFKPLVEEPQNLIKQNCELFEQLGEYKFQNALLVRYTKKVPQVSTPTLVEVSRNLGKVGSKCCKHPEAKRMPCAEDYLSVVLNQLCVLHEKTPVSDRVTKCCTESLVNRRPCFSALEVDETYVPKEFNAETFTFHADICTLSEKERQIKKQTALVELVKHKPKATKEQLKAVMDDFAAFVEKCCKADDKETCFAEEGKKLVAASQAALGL
compound,measurement,setting,value
"CC[C@@]1(O)C(=O)OCc2c1cc1n(c2=O)Cc2cc3cc(O)ccc3nc2-1 [10-hydroxyl CPT, 10-Hydroxy-CPT (SN22)]",viability at 0.1 µM,[1]; [9],72%
same,viability at 1 µM,[1]; [10],30%
same,viability at 10 µM,[1]; [11],24%
same,viability at 0.1 µM,[2],53%
same,viability at 1 µM,[2],40%
same,viability at 10 µM,[2],18%
same,viability at 0.1 µM,"[3]; HCT-116, 0.1 μM, 48 hours",15%
same,viability at 1 µM,"[3]; HCT-116, 1.0 μM, 48 hours",1%
same,viability at 10 µM,"[3]; HCT-116, 10 μM, 48 hours",9%
"CC[C@@]1(O)C(=O)OCc2c1cc1n(c2=O)Cc2cc3ccccc3nc2-1 [CPT, Camptothecin]",viability at 0.1 µM,[1]; [9],65%
same,viability at 1 µM,[1]; [10],51%
same,viability at 10 µM,[1]; [11],24%
same,viability at 10 µM,[1]; [12],< 30%
same,viability at 0.1 µM,[2],13%
same,viability at 1 µM,[2],5%
same,viability at 10 µM,[2],3%
same,HCT116 cell viability after drug treatment for 48 hours,[3]; 1.0 μM,82%
same,viability at 0.1 µM,"[3]; HCT-116, 48 h, 0.1 μM",107%
same,viability at 1 µM,"[3]; HCT-116, 48 h, 1.0 μM",76%
same,solubility,Water-solubility,< 100 µg/mL
same,Lactone ring stability,[4],<50%
CC[C@@]1(OP(=O)(O)O)C(=O)OCc2c1cc1n(c2=O)Cc2cc3ccccc3nc2-1 [CPT-20(S)-phosphate],Cancer cell viability,[1]; [13],>85%
same,Water-solubility,Water-solubility,>10000 µg/mL
same,Lactone ring stability,[4],>90%
CCc1c2c(nc3ccc(O)cc13)-c1cc3c(c(=O)n1C2)COC(=O)[C@]3(O)CC [SN38],viability at 0.1 µM,[1]; [9],79%
same,viability at 1 µM,[1]; [10],60%
same,viability at 10 µM,[1]; [11],28%
same,viability at 0.1 µM,[2],48%
same,viability at 1 µM,[2],33%
same,viability at 10 µM,[2],20%
same,viability at 0.1 µM,"[3]; HCT-116, 48 h, 0.1 μM",5%
same,viability at 1 µM,"[3]; HCT-116, 48 h, 1.0 μM",2%
same,viability at 10 µM,"[3]; HCT-116, 48 h, 10 μM",6%
CCC(O)(C(=O)O)c1cc2n(c(=O)c1CO)Cc1cc3ccccc3nc1-2 (stereo not drawn) [carboxylate derivative],"preferential binding to human serum album, relative to CPT",human serum album,150 fold
COc1cc([C@@H]2c3cc4c(cc3[C@@H](O[C@@H]3O[C@@H]5CO[C@@H](C)O[C@H]5[C@H](O)[C@H]3O)[C@H]3COC(=O)[C@H]23)OCO4)cc(OC)c1O [etoposide],viability at 0.1 µM,[1]; [9],95%
same,viability at 1 µM,[1]; [10],73%
same,viability at 10 µM,[1]; [11],47%
same,viability at 0.1 µM,"[3]; HCT-116, 48 h, 0.1 μM",102%
same,viability at 1 µM,"[3]; HCT-116, 48 h, 1.0 μM",89%
same,viability at 10 µM,"[3]; HCT-116, 48 h, 10 μM",29%
"CCc1c2c(nc3ccc(OC(=O)N4CCC(N5CCCCC5)CC4)cc13)-c1cc3c(c(=O)n1C2)COC(=O)[C@]3(O)CC [irinotecan, Irinotecan]",viability at 10 µM,[1]; [12],> 30%
same,solubility,Water-solubility,1000 µg/mL
same,Lactone ring stability,[4],<50%
same,RTV22,"[5]; D0, 3, 7, 10, 14, 17",4.9 ± 1.3
same,Animal body-weight (g_) End,"[5]; D0, 3, 7, 10, 14, 17, end",18.7 ± 1.7 g
same,RTV22,"[6]; D0, 3, 7, 10, 14, 17",1.9 ± 0.4
same,Animal body-weight (g_) End,"[6]; D0, 3, 7, 10, 14, 17, end",20.6 ± 1.4 g
same,Animal body-weight (g_) Start,"[6]; D0, 3, 7, 10, 14, 17, start",19.0 ± 0.8 g
Topotecan,H446 cell viability after drug treatment for 48 hours,"[1]; H446 cells, 0.1 μM, 48 hours",73%
same,H446 cell viability after drug treatment for 48 hours,"[1]; H446 cells, 1.0 μM, 48 hours",50%
same,H446 cell viability after drug treatment for 48 hours,"[1]; H446 cells, 10 μM, 48 hours",25% and 23%
same,Cancer cell viability,[1]; [13],>30%
same,MDAMB231 cell viability after drug treatment,[2]; 0.1 μM,68%
same,MDAMB231 cell viability after drug treatment,[2]; 1.0 μM,50%
same,MDAMB231 cell viability after drug treatment,[2]; 10 μM,23%
same,HCT116 cell viability after drug treatment for 48 hours,[3]; 0.1 μM,26%
same,HCT116 cell viability after drug treatment for 48 hours,[3]; 1.0 μM,2%
same,HCT116 cell viability after drug treatment for 48 hours,[3]; 10 μM,6%
same,Water-solubility,Water-solubility,1000 µg/mL
same,Lactone ring stability,[4],<50%
same,MTD (Maximum Toxicity Dosage),"[7]; NCI-H446 nude mice, i.v., 6 administrations",10 mg/kg
same,animal death,"[7]; WQ1001 40 mg/kg Group, topotecan 10 mg/kg Group, to D22",no animal death appeared
same,tumor growth,"[7]; WQ1001 10, 20 and 40 mg/kg, topotecan 10 mg/kg, 6 administrations i.v.",significantly inhibited tumor growth
same,body weight change at the end of test,"[7]; end of test (D22), WQ1001 40 mg/kg Group, topotecan 10 mg/kg Group",decreased significantly
same,RTV22,[7]; [14],10.7 ± 4.8
same,T22/C22 (%),[7]; [14],49.3%
same,Animal body-weight (g_) End,"[7]; topotecan 10 mg/kg i.v., D0, 4, 7, 11, 14, 17, end (D22)",16.4 ± 1.5 g
same,Animal body-weight (g_) Start,"[7]; topotecan 10 mg/kg i.v., D0, 4, 7, 11, 14, 17, start",17.6 ± 1.2 g
same,RTV11,"[8]; D2, 6, 10",25.3 ± 14.8
same,T11/C11 (%),"[8]; D2, 6, 10",62.7%
same,Animal body-weight (g_) End,"[8]; D2, 6, 10, end (Day 11)",19.2 ± 0.9 g
same,Animal body-weight (g_) Start,"[8]; D2, 6, 10, start",21.0 ± 1.6 g

# Reference: US9266911B2, “Camptothecin derivative, and preparation method thereof, and pharmaceutical composition and application” (priority 2011, dated 2016)
